pIC50: −log10 of the molar value. Values belong to the compound of their own block, whether it stands above or below them. Calls of active or inactive are those of the source. The rule behind the calls is not given here.
Columns and labels:
T-cell [1] = test: Immunomodulatory activity in concanavalin A stimulated BALB/c mouse T-lymphocyte co-cultured with mouse CT26 cells overexpressing PD-L1 assessed as T cell proliferation at 20 nM incubated for 48 hrs by flow cytometry (reference value: 58.47 +/- 2.07%); format: functional
T-cell [2] = test: Immunomodulatory activity in concanavalin A stimulated BALB/c mouse T-lymphocyte co-cultured with mouse CT26 cells assessed as increase in T cell proliferation at 5 to 80 nM incubated for 48 hrs by flow cytometry; format: functional, cell-based; conditions: dose 5-80 nM
T-cell [3] = test: Immunomodulatory activity in concanavalin A stimulated BALB/c mouse T-lymphocyte co-cultured with mouse CT26 cells overexpressing PD-L1 assessed as increase in T cell proliferation at 5 to 80 nM incubated for 48 hrs by flow cytometry; format: functional, cell-based; conditions: dose 5-80 nM
T-cell [4] = test: Immunomodulatory activity in concanavalin A stimulated BALB/c mouse T-lymphocyte co-cultured with mouse CT26 cells assessed as T cell proliferation at 20 nM incubated for 48 hrs by flow cytometry (reference value: 64.08 +/- 0.91%); format: functional
[5] = biological target: Programmed cell death protein 1/Programmed cell death 1 ligand 1 (Homo sapiens, UniProt Q15116+Q9NZQ7); test: Inhibition of PD-1/PD-L1 (unknown origin) protein-protein interaction incubated for 105 mins by HTRF assay; format: protein-complex assay
[6] = Metabolic stability in human liver microsomes assessed as half life; format: ADME, Microsome
T-cell [7] = test: Immunomodulatory activity in concanavalin A stimulated BALB/c mouse T-lymphocyte co-cultured with mouse CT26 cells overexpressing PD-L1 assessed as increase in proportion of CD3 positive CD69 positive T cells at 20 nM incubated for 48 hrs by flow cytometry (reference value: 39.97%); format: functional
T-cell [8] = test: Immunomodulatory activity in concanavalin A stimulated BALB/c mouse T-lymphocyte co-cultured with mouse CT26 cells overexpressing PD-L1 assessed as increase in proportion of CD3 positive CD69 positive T cells at 80 nM incubated for 48 hrs by flow cytometry (reference value: 41.22%); format: functional
T-cell [9] = test: Immunomodulatory activity in concanavalin A stimulated BALB/c mouse T-lymphocyte co-cultured with mouse CT26 cells overexpressing PD-L1 assessed as increase in proportion of CD3 positive CD8 positive T cells at 80 nM incubated for 48 hrs by flow cytometry (reference value: 14.38%); format: functional
T-cell [10] = test: Immunomodulatory activity in concanavalin A stimulated BALB/c mouse T-lymphocyte co-cultured with mouse CT26 cells overexpressing PD-L1 assessed as increase in proportion of CD3 positive CD8 positive T cells at 20 nM incubated for 48 hrs by flow cytometry (reference value: 15.01%); format: functional
[11] = Toxicity in C57 mouse implanted with mouse Lewis lung carcinoma cell line overexpressing PD-L1 assessed as reduction in body weight at 20 mg/kg,ip administrated once every three days for 19 days; format: organism-based; conditions: in vivo, 456 h, time 19 day
Lewis lung carcinoma [12] = test: Cytotoxicity against mouse Lewis lung carcinoma cell line assessed as cell growth inhibition at 0.25 to 4096 nM incubated for 48 hrs by MTT assay; format: functional, cell-based; conditions: dose 0.25-4096 nM
[13] = (§1) Antitumor activity against mouse Lewis lung carcinoma cell line overexpressing PD-L1 implanted in C57 mouse model assessed as increase in infiltration of CD3 positive CD8 positive T cells in tumor by measuring late apoptotic cells at 20 mg/kg,ip administrated once every three days for 19 days by flow cytometry analysis (reference value: 9%); format: functional; conditions: time 19 day
[14] = Toxicity in C57 mouse implanted with mouse Lewis lung carcinoma cell line overexpressing PD-L1 assessed as effect on lung viscera index at 20 mg/kg,ip administrated once every three days for 19 days; format: organism-based; conditions: in vivo, 456 h, time 19 day
[15] = Antitumor activity against mouse Lewis lung carcinoma cell line overexpressing PD-L1 implanted in C57 mouse model assessed as increase in CD8 positive IFN-gamma positive T cells in tumor at 20 mg/kg,ip administrated once every three days for 19 days by flow cytometry analysis (Rvb =20.66%); format: functional; conditions: time 19 day
CT26 [16] = test: Cytotoxicity against mouse CT26 cells assessed as cell growth inhibition at 0.25 to 4096 nM incubated for 48 hrs by MTT assay; format: functional, cell-based; conditions: dose 0.25-4096 nM
[17] = as §1, with “early” for “late”, “1.32%)” for “9%)”; format: functional; conditions: time 19 day
[18] = Toxicity in C57 mouse implanted with mouse Lewis lung carcinoma cell line overexpressing PD-L1 assessed as effect on kidney viscera index at 20 mg/kg,ip administrated once every three days for 19 days; format: organism-based; conditions: in vivo, 456 h, time 19 day
[19] = Toxicity in C57 mouse implanted with mouse Lewis lung carcinoma cell line overexpressing PD-L1 assessed as effect on heart viscera index at 20 mg/kg,ip administrated once every three days for 19 days; format: organism-based; conditions: in vivo, 456 h, time 19 day
Lewis lung carcinoma [20] = test: Cytotoxicity against mouse Lewis lung carcinoma cell line overexpressing PD-L1 assessed as cell growth inhibition at 0.25 to 4096 nM incubated for 48 hrs by MTT assay; format: functional, cell-based; conditions: dose 0.25-4096 nM
[21] = as §1, with “CD4” for “CD8”, “early” for “late”, “2.24%)” for “9%)”; format: functional; conditions: time 19 day
CT26 [22] = test: Cytotoxicity against mouse CT26 cells overexpressing PD-L1 assessed as cell growth inhibition at 0.25 to 4096 nM incubated for 48 hrs by MTT assay; format: functional, cell-based; conditions: dose 0.25-4096 nM
[23] = Metabolic stability in human liver microsomes assessed as intrinsic clearance; format: ADME, Microsome; conditions: read-out: CLH
[24] = Metabolic stability in rat liver microsomes assessed as half life; format: ADME, Microsome
[25] = as §1, with “necrotic” for “late apoptotic”, “5.17%)” for “9%)”; format: functional; conditions: time 19 day
[26] = as §1, with “CD4” for “CD8”, “12.07%)” for “9%)”; format: functional; conditions: time 19 day
[27] = Toxicity in C57 mouse implanted with mouse Lewis lung carcinoma cell line overexpressing PD-L1 assessed as effect on spleen viscera index at 20 mg/kg,ip administrated once every three days for 19 days; format: organism-based; conditions: in vivo, 456 h, time 19 day
[28] = Toxicity in C57 mouse implanted with mouse Lewis lung carcinoma cell line overexpressing PD-L1 assessed as effect on liver viscera index at 20 mg/kg,ip administrated once every three days for 19 days; format: organism-based; conditions: in vivo, 456 h, time 19 day
[29] = as §1, with “viable” for “late apoptotic”, “84.51%)” for “9%)”; format: functional; conditions: time 19 day
[30] = Antitumor activity against mouse Lewis lung carcinoma cell line overexpressing PD-L1 implanted in C57 mouse model assessed as increase in CD8 positive GzmB positive T cells in tumor at 20 mg/kg,ip administrated once every three days for 19 days by flow cytometry analysis (reference value: 9.11%); format: functional; conditions: time 19 day
Lewis lung carcinoma [31] = test: Antitumor immunity against mouse Lewis lung carcinoma cell line overexpressing PD-L1 co-cultured with concanavalin A stimulated BALB/c mouse spleen T cell assessed as increase in T cell infiltration into tumor matrix at 80 nM incubated for 48 to 72 hrs by fluorescence microscopy; format: functional, cell-based; conditions: time 48-72 hrs
[32] = Antitumor activity against mouse Lewis lung carcinoma cell line overexpressing PD-L1 implanted in C57 mouse model assessed as tumor growth inhibition at 20 mg/kg,ip administrated once every three days for 19 days; format: functional; conditions: 456 h, time 19 day, read-out: TGI
Lewis lung carcinoma [33] = test: Antitumor immunity against mouse Lewis lung carcinoma cell line overexpressing PD-L1 co-cultured with concanavalin A stimulated BALB/c mouse spleen T cell assessed as increase in T cell infiltration into tumor matrix at 20 nM incubated for 48 to 72 hrs by fluorescence microscopy; format: functional, cell-based; conditions: time 48-72 hrs
[34] = as §1, with “CD4” for “CD8”, “viable” for “late apoptotic”, “83.97%)” for “9%)”; format: functional; conditions: time 19 day
[35] = Metabolic stability in rat liver microsomes assessed as intrinsic clearance; format: ADME, Microsome; conditions: read-out: CLH
[36] = as §1, with “CD4” for “CD8”, “necrotic” for “late apoptotic”, “1.72%)” for “9%)”; format: functional; conditions: time 19 day

Sequence of Programmed cell death protein 1/Programmed cell death 1 ligand 1 (Q15116 whole entry): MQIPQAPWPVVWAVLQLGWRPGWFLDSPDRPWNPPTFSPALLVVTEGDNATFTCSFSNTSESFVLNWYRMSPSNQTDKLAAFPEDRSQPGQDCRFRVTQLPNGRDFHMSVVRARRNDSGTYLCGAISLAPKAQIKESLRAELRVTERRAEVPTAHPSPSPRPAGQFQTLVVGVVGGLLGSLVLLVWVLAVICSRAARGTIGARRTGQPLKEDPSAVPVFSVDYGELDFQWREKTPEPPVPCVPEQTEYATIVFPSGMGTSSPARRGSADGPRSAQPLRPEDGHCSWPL
Sequence of Programmed cell death protein 1/Programmed cell death 1 ligand 1 (Q9NZQ7 whole entry): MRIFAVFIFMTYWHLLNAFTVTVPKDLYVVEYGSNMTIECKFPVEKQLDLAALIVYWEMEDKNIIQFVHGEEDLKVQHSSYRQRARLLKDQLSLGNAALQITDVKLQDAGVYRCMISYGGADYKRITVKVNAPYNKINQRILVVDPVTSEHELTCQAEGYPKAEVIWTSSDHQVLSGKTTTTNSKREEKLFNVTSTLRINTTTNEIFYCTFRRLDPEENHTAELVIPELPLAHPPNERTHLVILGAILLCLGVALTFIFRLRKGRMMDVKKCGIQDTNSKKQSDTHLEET

Structure (SMILES): OCCNCc1cnc2c(N3CCc4c(-c5ccc6c(c5)OCCO6)cccc43)ncnc2c1
- Activity (T-cell [1]): 59.54%
- Activity (T-cell [2]): Active
- Activity (T-cell [3]): Active
- Activity (T-cell [4]): 61.77%
- pIC50 [5]: 8.14

Structure (SMILES): c1ccc(-c2cccc3c2CCN3c2ncnc3cc(CNC4CCOCC4)ccc23)cc1
- pIC50 [5]: 6.97

Structure (SMILES): CC(=O)NCCNCc1cnc2c(N3CCc4c(-c5ccc6c(c5)OCCO6)cccc43)ncnc2c1
- pIC50 [5]: 7.86

- half-life [6]: 0.373 h
Structure (SMILES): O=C(c1ncc(CNC2CCOCC2)s1)N1CCc2c(-c3ccc4c(c3)OCCO4)cccc21
- Activity (T-cell [1]): 60.49%
- Activity (T-cell [2]): Active
- Activity (T-cell [3]): Active
- Activity (T-cell [4]): 59.1%
- pIC50 [5]: 7.72

Structure (SMILES): CC(C)(CO)NCc1cnc2c(N3CCc4c(-c5ccc6c(c5)OCCO6)cccc43)ncnc2c1
- pIC50 [5]: 7.85

Structure (SMILES): CC(C)(CO)NCc1cnc2c(N3CCc4c(-c5ccccc5)cccc43)nccc2c1
- pIC50 [5]: 7.35

- half-life [6]: 1.85 h
Structure (SMILES): CC(=O)NCCNCc1cnc2c(N3CCc4c(-c5ccccc5)cccc43)ncnc2c1
- Activity (T-cell [7]): 43.99%
- Activity (T-cell [1]): 55.7%
- Activity (T-cell [2]): Active
- Activity (T-cell [8]): 45.07%
- Activity (T-cell [3]): Active
- Activity (T-cell [9]): 22.16%
- Activity (T-cell [10]): 18.56%
- Activity (T-cell [4]): 51.57%
- pIC50 [5]: 8.41

Structure (SMILES): O=C(O)[C@H]1CCN(Cc2cnc3c(N4CCc5c(-c6ccccc6)cccc54)nccc3c2)C1
- pIC50 [5]: 7.09

Structure (SMILES): OCCNCc1ccc2c(N3CCc4c(-c5ccccc5)cccc43)ncnc2c1
- pIC50 [5]: 7.36

Structure (SMILES): O=C(O)[C@@H]1CCCN1Cc1cnc2c(N3CCc4c(-c5ccccc5)cccc43)ncnc2c1
- Activity (T-cell [1]): 61.9%
- Activity (T-cell [2]): Active
- Activity (T-cell [3]): Active
- Activity (T-cell [4]): 64.03%
- pIC50 [5]: 8.09

Structure (SMILES): O=C(O)[C@@H]1CCCN1Cc1cnc2c(N3CCc4c(-c5ccc6c(c5)OCCO6)cccc43)ncnc2c1
- pIC50 [5]: 7.80

Structure (SMILES): O=C(O)[C@H]1CCN(Cc2cnc3c(N4CCc5c(-c6ccccc6)cccc54)ncnc3c2)C1
- Activity (T-cell [1]): 52.78%
- Activity (T-cell [2]): Active
- Activity (T-cell [3]): Active
- Activity (T-cell [4]): 54.44%
- pIC50 [5]: 8.09

- microsomal CLint [23]: 6.9 µL/min/mg
- half-life [24]: 2.64 h
- half-life [6]: 3.34 h
- microsomal CLint [35]: 8.8 µL/min/mg
Structure (SMILES): CC(C)(CO)NCc1cnc2c(N3CCc4c(-c5ccccc5)cccc43)ncnc2c1
- Activity [11]: Toxic
- Activity (Lewis lung carcinoma [12]): inactive
- Activity [13]: 17.77%
- Activity [14]: Toxic
- Activity [15]: 31.1%
- Activity (CT26 [16]): inactive
- Activity (T-cell [7]): 56.41%
- Activity [17]: 4.77%
- Activity [18]: Non-Toxic
- Activity (T-cell [1]): 62.69%
- Activity [19]: Non-Toxic
- Activity (T-cell [2]): Active
- Activity (T-cell [8]): 61.21%
- Activity (Lewis lung carcinoma [20]): inactive
- Activity [21]: 3.13%
- Activity (T-cell [3]): Active
- Activity (CT26 [22]): inactive
- Activity [25]: 2.4%
- Activity [26]: 22.29%
- Activity [27]: Non-Toxic
- Activity (T-cell [9]): 26.32%
- Activity [28]: Non-Toxic
- Activity [29]: 75.06%
- Activity [30]: 21.13%
- Activity (Lewis lung carcinoma [31]): Active
- inhibition in vivo at 20 mg/kg [32]: 61.9%
- Activity (Lewis lung carcinoma [33]): Active
- Activity (T-cell [10]): 23.79%
- Activity (T-cell [4]): 54.61%
- pIC50 [5]: 8.20
- Activity [34]: 73.8%
- Activity [36]: 0.78%

Structure (SMILES): O=C(O)[C@H]1CCCN1Cc1cnc2c(N3CCc4c(-c5ccccc5)cccc43)ncnc2c1
- pIC50 [5]: 7.64

Structure (SMILES): O[C@H]1CCN(Cc2cnc3c(N4CCc5c(-c6ccccc6)cccc54)ncnc3c2)C1
- pIC50 [5]: 7.76

Structure (SMILES): OC[C@H]1CCN(Cc2cnc3c(N4CCc5c(-c6ccccc6)cccc54)ncnc3c2)C1
- pIC50 [5]: 7.67
